According to ChEMBL document CHEMBL3046525, “In vitro antiproliferative activity of 11-aminoalkylamino-substituted 5H-indolo[2,3-b]quinolines; improving activity of neocryptolepines by installation of ester substituent” (Med Chem Res, 2013):

Legend:
[1] = Selectivity ratio of IC50 for mouse BALB/3T3 cells to IC50 for human HCT116 cells; format: cell-based, HCT-116; details: BALB/3T3 cells versus HCT116 cells, read-out: Ratio IC50
MV4-11 = assay: Antiproliferative activity against Homo sapiens (human) MV411 cells after 72 hr by MTT assay; format: functional, cell-based; details: MV4-11, 72 h
BALB/3T3 = assay: Cytotoxicity against Mus musculus (mouse) BALB/3T3 cells after 72 hr by SRB assay; format: cell-based; details: BALB/3T3, 72 h
A549 = assay: Antiproliferative activity against Homo sapiens (human) A549 cells after 72 hr by SRB assay; format: functional, cell-based; details: A549, 72 h

| SMILES | selectivity ratio [1] | IC50 (MV4-11) [nM] | also measured |
| --- | --- | --- | --- |
| COC(=O)c1ccc2c(c1)c(NCCCN)c1c3ccccc3nc-1n2C | 4 |  |  |
| COC(=O)c1ccc2nc3n(C)c4ccccc4c(NCCCO)c-3c2c1 | 4 |  |  |
| COC(=O)c1ccc2nc3n(C)c4ccccc4c(NCCCN)c-3c2c1 | 4 |  |  |
| COC(=O)c1ccc2nc3n(C)c4ccccc4c(N4CCOCC4)c-3c2c1 | 4 |  |  |
| COC(=O)c1ccc2nc3n(C)c4ccccc4c(N4CCCN(C)CC4)c-3c2c1 | 4 |  |  |
| COC(=O)c1ccc2nc3n(C)c4ccccc4c(NCCCCN)c-3c2c1 | 4 |  |  |
| COC(=O)c1ccc2nc3n(C)c4ccccc4c(NCCN(C)C)c-3c2c1 | 4 |  |  |
| COC(=O)c1ccc2nc3n(C)c4ccccc4c(NCCCN(C)C)c-3c2c1 | 4 |  |  |
| Cn1c2nc3ccccc3c-2c(NCCCO)c2ccccc21 |  | 170 |  |
| CN1CCCN(c2c3c4ccccc4nc-3n(C)c3ccccc23)CC1 |  | 7170 |  |
| Cn1c2nc3ccccc3c-2c(NCCCCN)c2ccccc21 |  | 100 |  |
| COC(=O)c1ccc2nc3n(C)c4ccc(C(=O)OC)cc4c(NCCCN)c-3c2c1 | 28 |  |  |
| COC(=O)c1ccc2nc3n(C)c4ccc(Br)cc4c(NCCCN)c-3c2c1 | 4 | 56 | IC50 (BALB/3T3): 833 nM; IC50 (A549): 194 nM |
| COC(=O)c1ccc2c(c1)c(NCCCN)c1c3cc(Br)ccc3nc-1n2C | 4 |  |  |
| Cn1c2nc3ccc(Br)cc3c-2c(NCCCN)c2cc(Cl)ccc21 | 4 |  |  |
| Cn1c2nc3ccc(C(=O)O)cc3c-2c(NCCCN)c2ccccc21 |  | > 25000 |  |
| CN(C)CCNc1c2c3cc(C(=O)O)ccc3nc-2n(C)c2ccccc12 |  | 9280 |  |
| CN(C)CCCNc1c2c3cc(C(=O)O)ccc3nc-2n(C)c2ccccc12 |  | > 25000 |  |
| Cn1c2nc3ccc(C(=O)O)cc3c-2c(NCCCO)c2ccccc21 |  | > 25000 |  |
